Source: ChEMBL document CHEMBL3393039, “Anthranilic acid derivatives as nuclear receptor modulators--development of novel PPAR selective and dual PPAR/FXR ligands” (Bioorg Med Chem, 2015)
Values after ≈ are worked out from the molar mass of the structure shown. Active and inactive are the calls of the source. The calls are words filed in the database; no cut-off is given here.

What was measured:
[1] = target: T1, Peroxisome proliferator-activated receptor alpha (Homo sapiens) (UniProt Q07869); assay: Transactivation of Gal4-tagged PPARalpha ligand binding domain (unknown origin) expressed in COS7 cells at 10 uM measured after overnight incubation by luciferase reporter gene assay; assay type: cell-based; conditions: COS-7
T1 sequence (whole entry): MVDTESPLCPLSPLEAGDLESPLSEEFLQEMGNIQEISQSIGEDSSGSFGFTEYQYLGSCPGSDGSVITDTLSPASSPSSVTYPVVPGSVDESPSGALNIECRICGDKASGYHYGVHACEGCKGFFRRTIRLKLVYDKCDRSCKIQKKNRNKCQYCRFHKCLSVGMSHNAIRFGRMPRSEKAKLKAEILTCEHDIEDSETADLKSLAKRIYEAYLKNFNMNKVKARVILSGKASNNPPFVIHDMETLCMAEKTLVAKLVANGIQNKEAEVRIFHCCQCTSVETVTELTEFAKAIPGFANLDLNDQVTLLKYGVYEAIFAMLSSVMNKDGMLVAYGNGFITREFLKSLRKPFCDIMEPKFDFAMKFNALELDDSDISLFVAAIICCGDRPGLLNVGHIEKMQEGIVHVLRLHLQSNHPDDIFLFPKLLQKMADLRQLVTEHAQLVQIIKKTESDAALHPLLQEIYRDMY

[2] = target: T2, Peroxisome proliferator-activated receptor gamma (Homo sapiens) (UniProt P37231); assay: Transactivation of Gal4-tagged PPARgamma ligand binding domain (unknown origin) expressed in COS7 cells at 10 uM measured after overnight incubation by luciferase reporter gene assay; assay type: cell-based; conditions: COS-7
T2 sequence (whole entry): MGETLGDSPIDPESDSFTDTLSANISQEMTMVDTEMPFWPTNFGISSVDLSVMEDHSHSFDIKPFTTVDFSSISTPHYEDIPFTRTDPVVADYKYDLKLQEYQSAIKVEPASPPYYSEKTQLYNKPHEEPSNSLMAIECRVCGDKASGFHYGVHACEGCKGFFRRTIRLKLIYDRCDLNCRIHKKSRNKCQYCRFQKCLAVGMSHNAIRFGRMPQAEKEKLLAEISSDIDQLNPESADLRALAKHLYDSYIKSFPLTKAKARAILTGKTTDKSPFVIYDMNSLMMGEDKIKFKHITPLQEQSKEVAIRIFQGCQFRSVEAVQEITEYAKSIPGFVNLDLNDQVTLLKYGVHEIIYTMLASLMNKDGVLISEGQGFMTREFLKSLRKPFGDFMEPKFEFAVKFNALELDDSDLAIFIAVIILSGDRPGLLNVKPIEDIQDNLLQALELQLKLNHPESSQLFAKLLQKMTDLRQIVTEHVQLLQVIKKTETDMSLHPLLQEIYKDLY

[3] = target: T3, Peroxisome proliferator-activated receptor delta (Homo sapiens) (UniProt Q03181); assay: Transactivation of Gal4-tagged PPARdelta ligand binding domain (unknown origin) expressed in COS7 cells at 30 uM measured after overnight incubation by luciferase reporter gene assay; assay type: cell-based; conditions: COS-7
T3 sequence (whole entry): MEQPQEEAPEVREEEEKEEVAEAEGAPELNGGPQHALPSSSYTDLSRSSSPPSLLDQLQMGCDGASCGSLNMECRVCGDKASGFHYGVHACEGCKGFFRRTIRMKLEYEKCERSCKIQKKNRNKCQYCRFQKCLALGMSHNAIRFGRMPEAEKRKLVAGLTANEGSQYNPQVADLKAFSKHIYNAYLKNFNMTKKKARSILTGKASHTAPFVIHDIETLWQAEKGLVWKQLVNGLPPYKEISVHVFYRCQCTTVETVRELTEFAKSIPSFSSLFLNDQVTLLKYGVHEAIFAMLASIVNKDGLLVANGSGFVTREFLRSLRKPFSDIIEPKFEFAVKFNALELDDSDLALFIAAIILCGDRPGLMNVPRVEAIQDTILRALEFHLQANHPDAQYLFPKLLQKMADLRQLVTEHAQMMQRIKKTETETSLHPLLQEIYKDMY

[4] = Cytotoxic activity against human HepG2 cells assessed as LDH release at 5 uM after 48 hrs by LDH release assay (reference value: 100%)
[5] = Antiproliferative activity against human HepG2 cells assessed as cell viability at 10 uM after 48 hrs by WST1 assay (reference value: 100%); assay type: cell-based; conditions: read-out: Activity
[6] = target: T2, Peroxisome proliferator-activated receptor gamma (Homo sapiens); assay: Transactivation of Gal4-tagged PPARgamma ligand binding domain (unknown origin) expressed in COS7 cells measured after overnight incubation by luciferase reporter gene assay relative to piaglitazone; assay type: cell-based; conditions: Chlorocebus aethiops; COS-7
[7] = Cytotoxic activity against human HepG2 cells assessed as LDH release at 10 uM after 48 hrs by LDH release assay (reference value: 100%)
[8] = Cytotoxic activity against human HepG2 cells assessed as LDH release at 30 uM after 48 hrs by LDH release assay (reference value: 100%)
[9] = target: T4, Peroxisome proliferator-activated receptor gamma (Homo sapiens, UniProt P37231); assay: Transactivation of Gal4-tagged PPARgamma ligand binding domain (unknown origin) expressed in COS7 cells measured after overnight incubation by luciferase reporter gene assay; assay type: cell-based, COS-7
T4 sequence (P37231 whole entry): T2 sequence (whole entry)

[10] = target: T5, Bile acid receptor (Homo sapiens) (UniProt Q96RI1); assay: Transactivation of human FXR expressed in human HeLa cells incubated for 24 hrs by luciferase reporter gene assay relative to GW4064; assay type: cell-based
T5 sequence (whole entry): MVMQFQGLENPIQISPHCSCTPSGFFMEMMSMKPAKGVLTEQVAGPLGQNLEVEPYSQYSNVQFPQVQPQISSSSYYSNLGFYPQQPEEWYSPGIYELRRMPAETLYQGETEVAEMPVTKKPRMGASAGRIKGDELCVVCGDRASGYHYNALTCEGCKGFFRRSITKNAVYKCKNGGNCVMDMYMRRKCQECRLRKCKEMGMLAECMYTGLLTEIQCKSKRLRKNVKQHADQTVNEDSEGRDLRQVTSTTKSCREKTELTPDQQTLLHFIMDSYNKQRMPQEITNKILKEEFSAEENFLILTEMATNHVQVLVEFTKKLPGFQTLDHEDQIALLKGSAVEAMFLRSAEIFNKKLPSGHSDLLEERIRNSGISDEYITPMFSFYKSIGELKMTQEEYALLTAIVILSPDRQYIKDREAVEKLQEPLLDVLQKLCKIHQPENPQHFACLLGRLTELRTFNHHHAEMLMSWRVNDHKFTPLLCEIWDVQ

[11] = Antiproliferative activity against human HepG2 cells assessed as cell viability at 5 uM after 48 hrs by WST1 assay (reference value: 100%); assay type: cell-based; conditions: read-out: Activity
[12] = target: T6, Peroxisome proliferator-activated receptor alpha (Homo sapiens, UniProt Q07869); assay: Transactivation of Gal4-tagged PPARalpha ligand binding domain (unknown origin) expressed in COS7 cells measured after overnight incubation by luciferase reporter gene assay; assay type: cell-based, COS-7
T6 sequence (Q07869 whole entry): T1 sequence (whole entry)

[13] = Antiproliferative activity against human HepG2 cells assessed as cell viability at 50 uM after 48 hrs by WST1 assay (reference value: 100%); assay type: cell-based; conditions: read-out: Activity
[14] = Aqueous solubility of the compound; assay type: physicochemical; conditions: aqueous medium (not specified further)
[15] = target: T1, Peroxisome proliferator-activated receptor alpha (Homo sapiens); assay: Transactivation of Gal4-tagged PPARalpha ligand binding domain (unknown origin) expressed in COS7 cells at 30 uM measured after overnight incubation by luciferase reporter gene assay; assay type: cell-based; conditions: COS-7
Homo sapiens [16] = species on record: Homo sapiens; assay: Selectivity index, ratio of EC50 for Gal4-tagged PPARdelta ligand binding domain (unknown origin) to EC50 for human FXR
Bile acid receptor = target: T7, Bile acid receptor (Homo sapiens, UniProt Q96RI1); assay: Transactivation of human FXR expressed in human HeLa cells incubated for 24 hrs by luciferase reporter gene assay; assay type: cell-based
T7 sequence (Q96RI1 whole entry): T5 sequence (whole entry)

Homo sapiens [17] = species on record: Homo sapiens; assay: Selectivity index, ratio of EC50 for Gal4-tagged PPARgamma ligand binding domain (unknown origin) to EC50 for human FXR
Homo sapiens [18] = species on record: Homo sapiens; assay: Selectivity index, ratio of EC50 for Gal4-tagged PPARalpha ligand binding domain (unknown origin) to EC50 for human FXR
[19] = target: T5, Bile acid receptor (Homo sapiens); assay: Transactivation of human FXR expressed in human HeLa cells at 30 uM incubated for 24 hrs by luciferase reporter gene assay; assay type: cell-based
[20] = target: T3, Peroxisome proliferator-activated receptor delta (Homo sapiens); assay: Transactivation of Gal4-tagged PPARdelta ligand binding domain (unknown origin) expressed in COS7 cells measured after overnight incubation by luciferase reporter gene assay relative to L165,041; assay type: cell-based; conditions: Chlorocebus aethiops; COS-7
[21] = target: T8, Peroxisome proliferator-activated receptor delta (Homo sapiens, UniProt Q03181); assay: Transactivation of Gal4-tagged PPARdelta ligand binding domain (unknown origin) expressed in COS7 cells measured after overnight incubation by luciferase reporter gene assay; assay type: cell-based, COS-7
T8 sequence (Q03181 whole entry): T3 sequence (whole entry)

[22] = target: T5, Bile acid receptor (Homo sapiens); assay: Antagonist activity against human FXR expressed in human HeLa cells incubated for 24 hrs by luciferase reporter gene assay; assay type: cell-based

Structure (SMILES) | max activation [1] [%] | max activation [2] [%] | Activity [3] | LDH release (% cytotoxicity) at 48 h, 5 µM [4] [%] | viability at 48 h, 10 µM [5] [%] | max activation [6] [%] | LDH release (% cytotoxicity) at 48 h, 10 µM [7] [%] | LDH release (% cytotoxicity) at 48 h, 30 µM [8] [%] | EC50 [9] [µM] | max activation [10] [%] | viability at 48 h, 5 µM [11] [%] | EC50 [12] [µM] | viability at 48 h, 50 µM [13] [%] | solubility [14] [µM] | also measured
O=C(O)CCCCCNC(=O)c1ccccc1NC(=O)c1ccc2ccccc2c1 | 38 | 40 | inactive |  |  |  |  |  |  |  |  |  |  |  | 
Cc1ccc(NC(=O)c2ccccc2NC(=O)c2ccc(C(C)(C)C)cc2)cc1C(=O)O |  |  | inactive | -0.1 | 99.6 | 98 | 2.2 | 28.4 | 5 | 22 | 106 | 0.21 | 82.5 | 4.9 (≈ 2.11 µg/mL) | 
O=C(O)Cc1ccc(NC(=O)c2ccccc2NC(=O)c2ccc3ccccc3c2)cc1 |  | 25 | inactive |  |  |  |  |  |  |  |  |  |  |  | Activity [15]: inactive
CC(C)(C)c1ccc(C(=O)Nc2cc(Cl)ccc2C(=O)Nc2cccc(C(=O)O)c2)cc1 | 44 |  | inactive |  |  | 256 |  |  | 9 | 22 |  |  |  |  | Ratio EC50 (Homo sapiens [16]): 100; EC50 (Bile acid receptor): 0.12 µM; Ratio EC50 (Homo sapiens [17]): 75; Ratio EC50 (Homo sapiens [18]): 100
CCc1ccc(C(=O)Nc2ccccc2C(=O)NCCCC(=O)O)cc1 |  | 39 | inactive |  |  |  |  |  |  |  |  | 15.7 |  |  | 
COc1ccc(C(=O)Nc2ccccc2C(=O)Nc2cccc(CC(=O)O)c2)cc1 | 17.3 | 13.2 |  |  |  |  |  |  |  |  |  |  |  |  | Activity [19]: inactive; max activation [20]: 54%; EC50 [21]: 5.9 µM
O=C(O)c1ccc(CNC(=O)c2ccccc2NC(=O)c2ccc3ccccc3c2)cc1 | 17 | 56 | inactive |  |  |  |  |  |  |  |  |  |  |  | 
Cc1ccc(C(=O)O)cc1NC(=O)c1ccccc1NC(=O)c1ccc(C(C)(C)C)cc1 |  |  | inactive | -1.3 | 92.2 | 163 | 0.7 | 37.3 | 6.3 |  | 95.7 |  | 72 | 2.6 (≈ 1.12 µg/mL) | Activity [19]: inactive; Activity [15]: inactive
CC(C)(C)c1ccc(C(=O)Nc2ccc(Cl)cc2C(=O)Nc2cccc(C(=O)O)c2)cc1 | 18 |  | inactive |  |  | 132 |  |  | 5.4 |  |  |  |  |  | inhibition [22]: Active
O=C(O)Cc1cccc(NC(=O)c2ccccc2NC(=O)c2ccc(-c3ccccc3)cc2)c1 |  |  |  | -4.5 | 79.5 | 125 | -1 | 72.9 | 2.6 | 18.8 | 96.5 | 3 | 33.6 | 1.7 (≈ 0.766 µg/mL) | max activation [20]: 175%; EC50 [21]: 6.4 µM; EC50 (Bile acid receptor): 0.7 µM
